This is an account of results in patent US5310752A, “Site specific alkylating agents” (priority 1986, dated 1994).

In brackets after ≈: the same amount, converted by molar mass. Where a name gives a salt, the structure may show the parent alone. Read-outs that look alike come from different tables or passages of the source.

One test has as its system P388 leukemia cells. Kind of test: in vitro cytotoxicity, P388 leukemia cells, 48 hours treatment. To be noted: for IC50: Mus musculus, read-out: ID50 P388. It counts as cell-based, murine. Here is the method: (§1) The in vitro antitumor activity was evaluated by cytotoxicity studies carried out on murine L1210 leukemia cells, L-PAM resistance leukemia cells and P388 leukemia cells, as well as on HeLa cells. Cells were derived from in vivo tumors and established in cell culture. Cells were used until the tenth passage. Cytotoxicity was determined by counting surviving cells after 4 hours treatment and 48 hours growth in drug-free medium. For HeLa cells the colony inhibition test according to Cancer Chemother. Pharmacol. 1:249-254, 1978, was used. The percentage of cell growth in the treated cultures was compared with that of controls. ID50 values (doses inhibiting 50% of the cellular growth in respect to controls) were calculated on dose-response curves.
^2) Cytotoxicity evaluated after 48 hours treatment;

The subject of a further test is L1210 leukemia cells. Kind of test: in vitro cytotoxicity, L1210 leukemia cells, 4 hours treatment. Format: cell-based. The conditions noted are these: murine L1210 leukemia cells, cytotoxicity evaluated after 4 hours treatment. Here is the method:
as §1
(§2) ^1) Cytotoxicity evaluated after 4 hours treatment;

Another test concerns HeLa cells. Kind of test: colony inhibition test, HeLa cells, 24 hours treatment. It counts as cell-based. The conditions noted are these: for IC50: Homo sapiens, read-out: ID50 HeLa. Here is the method: as §1
^3) Colony inhibition test carried out after 24 hours treatment.

In a further test the test system is L1210/LPAM. In words: in vitro cytotoxicity, L-PAM resistance leukemia cells (L1210/LPAM), 4 hours treatment. It counts as cell-based, murine. To be noted: for IC50: Mus musculus, L1210/LPAM, read-out: ID50 L1210/LPAM. Here is the method: as §1, §2
In the next test the test system is DNA-AT sequences. To be noted: reported in literature; cited from earlier work.
Setting [1] is: P388 leukemia cells, cytotoxicity evaluated after 48 hours treatment.
The mark [2] stands for this setting: HeLa cells, colony inhibition test carried out after 24 hours treatment.
Where [3] appears, read: L-PAM resistance leukemia cells, cytotoxicity evaluated after 4 hours treatment.

For the molecule `Cn1cc(NC(=O)c2cc(NC(=O)c3cc(NC(=O)c4cc(N(CCCl)CCCl)cs4)cn3C)cn2C)cc1C(=O)NCCC(=N)N` [FCE 24690, β-[1-methyl-4-[1-methyl-4-[1-methyl-4-[4-N,N-bis(2-chloro-ethyl)aminothiophen-2-carboxamido]pyrrole-2-carboxamido]pyrrole-2-carboxamido]pyrrole-2-carboxamido]propionamidine hydrochloride], in the test with P388 leukemia cells (setting [1]), the “ID50 P388” value came to 0.22 µg/mL. The “ID50 L1210” value with L1210 leukemia cells was found to be 1.365 µg/mL. For the same molecule, the “ID50 HeLa” value with HeLa cells (setting [2]) came out at 0.037 µg/mL. In addition, the “ID50 L1210/LPAM” value with L1210/LPAM (setting [3]) came out at 0.985 µg/mL.

With `Cn1cc(NC(=O)c2cc(NC(=O)c3cc(NC=O)cn3C)cn2C)cc1C(=O)NCCC(=N)N` [distamycin A, reference compound], the IC50 is 25 µg/mL (≈ 51.9 µM) with P388 leukemia cells (setting [1]); 198 µg/mL (≈ 411 µM) in the test on L1210 leukemia cells (Mus musculus, read-out: ID50 L1210); 3.9 µg/mL (≈ 8.1 µM) in the test on HeLa cells (setting [2]); 136 µg/mL (≈ 282 µM) in the test with L1210/LPAM (setting [3]). For the same molecule, the “interaction with DNA-AT sequences” value with DNA-AT sequences was “interact reversibly and selectively with DNA-AT sequences interfering with both replication and trascription”.

Take `Cn1cc(NC(=O)c2cc(NC(=O)c3cc(NC(=O)c4ccc(N(CCCl)CCCl)cc4)cn3C)cn2C)cc1C(=O)NCCC(=N)N` [FCE 24517, β-[1-methyl-4-[1-methyl-4-[1-methyl-4-[4-N,N-bis(2-chloro-ethyl)aminobenzene-1-carboxamido]pyrrole-2-carboxamido]pyrrole-2-carboxamido]pyrrole-2-carboxamido]propionamidine hydrochloride]: the IC50 is 0.21 µg/mL in the test with P388 leukemia cells (P388, 48 h); 0.014 µg/mL in the test with HeLa cells (HeLa, 24 h); 0.43 µg/mL with L1210/LPAM (4 h).
